For four compounds, Ki and EDmin results are on record in ChEMBL document CHEMBL1150510 (Bioorg Med Chem Lett, 1997).

The target of experiment [1] is Serotonin 2 (5-HT2) receptor (Homo sapiens, UniProt P41595+P28223+P28335). In words: In vitro binding affinity of compound against neuronal 5-hydroxytryptamine 2 receptor. In kind it is protein assay.
The target in experiment [2] is T1, Adrenergic receptor alpha-1 (Homo sapiens, UniProt P35348+P25100+P35368).
T1 sequence (P35348 whole entry): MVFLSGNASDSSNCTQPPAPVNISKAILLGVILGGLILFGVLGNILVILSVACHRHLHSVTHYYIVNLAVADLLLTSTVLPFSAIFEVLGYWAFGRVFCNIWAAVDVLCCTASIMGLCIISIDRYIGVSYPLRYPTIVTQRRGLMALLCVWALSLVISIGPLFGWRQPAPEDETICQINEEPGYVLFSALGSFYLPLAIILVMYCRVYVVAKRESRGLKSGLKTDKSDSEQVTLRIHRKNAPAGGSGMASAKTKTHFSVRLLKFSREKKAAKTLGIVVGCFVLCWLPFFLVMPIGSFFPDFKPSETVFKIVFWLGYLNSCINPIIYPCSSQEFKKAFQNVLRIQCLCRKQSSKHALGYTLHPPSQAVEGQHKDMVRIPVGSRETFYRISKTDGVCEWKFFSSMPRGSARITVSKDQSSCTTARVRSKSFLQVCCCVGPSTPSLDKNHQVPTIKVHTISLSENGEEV
T1 sequence (P25100 whole entry): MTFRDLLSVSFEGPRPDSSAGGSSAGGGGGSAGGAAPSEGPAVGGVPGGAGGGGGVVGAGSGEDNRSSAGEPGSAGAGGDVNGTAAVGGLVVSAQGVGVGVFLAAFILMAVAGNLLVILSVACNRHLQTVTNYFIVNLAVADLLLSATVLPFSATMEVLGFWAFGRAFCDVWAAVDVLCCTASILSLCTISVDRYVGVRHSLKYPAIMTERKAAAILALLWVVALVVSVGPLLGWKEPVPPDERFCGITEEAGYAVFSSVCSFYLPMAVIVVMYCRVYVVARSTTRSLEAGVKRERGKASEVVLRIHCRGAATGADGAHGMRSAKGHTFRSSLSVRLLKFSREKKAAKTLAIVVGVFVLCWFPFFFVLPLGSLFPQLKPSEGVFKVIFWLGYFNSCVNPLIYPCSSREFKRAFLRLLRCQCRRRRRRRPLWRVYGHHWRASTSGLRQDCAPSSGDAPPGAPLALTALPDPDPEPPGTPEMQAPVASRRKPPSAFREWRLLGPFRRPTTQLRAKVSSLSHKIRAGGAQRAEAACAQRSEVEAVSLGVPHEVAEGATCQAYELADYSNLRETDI
T1 sequence (P35368 whole entry): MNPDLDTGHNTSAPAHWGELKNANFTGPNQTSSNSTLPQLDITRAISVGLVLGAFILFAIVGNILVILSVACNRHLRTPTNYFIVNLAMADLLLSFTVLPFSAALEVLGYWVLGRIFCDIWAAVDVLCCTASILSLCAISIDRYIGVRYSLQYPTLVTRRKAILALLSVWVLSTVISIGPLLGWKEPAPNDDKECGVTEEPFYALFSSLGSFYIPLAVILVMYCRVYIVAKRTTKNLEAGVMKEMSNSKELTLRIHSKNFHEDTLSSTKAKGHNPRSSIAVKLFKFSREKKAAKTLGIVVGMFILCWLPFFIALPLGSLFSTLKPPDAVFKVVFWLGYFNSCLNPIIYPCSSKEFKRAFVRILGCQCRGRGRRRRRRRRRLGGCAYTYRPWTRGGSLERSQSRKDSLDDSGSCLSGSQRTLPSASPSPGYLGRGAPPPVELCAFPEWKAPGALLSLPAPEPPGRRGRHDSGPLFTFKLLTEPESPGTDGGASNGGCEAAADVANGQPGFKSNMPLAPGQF
Briefly: In vitro binding affinity of compound against Alpha-1 adrenergic receptor. In kind it is protein assay.

A further experiment addresses Adrenergic receptor beta (Homo sapiens, UniProt P08588+P07550+P13945). Briefly: In vitro binding affinity of compound against neuronal Beta adrenergic receptor. Format: protein assay.
The next experiment deals with D(2) dopamine receptor (Homo sapiens, UniProt P14416). In words: In vitro binding affinity of compound against neuronal Dopamine receptor D2.
Chain of D(2) dopamine receptor (P14416 whole entry): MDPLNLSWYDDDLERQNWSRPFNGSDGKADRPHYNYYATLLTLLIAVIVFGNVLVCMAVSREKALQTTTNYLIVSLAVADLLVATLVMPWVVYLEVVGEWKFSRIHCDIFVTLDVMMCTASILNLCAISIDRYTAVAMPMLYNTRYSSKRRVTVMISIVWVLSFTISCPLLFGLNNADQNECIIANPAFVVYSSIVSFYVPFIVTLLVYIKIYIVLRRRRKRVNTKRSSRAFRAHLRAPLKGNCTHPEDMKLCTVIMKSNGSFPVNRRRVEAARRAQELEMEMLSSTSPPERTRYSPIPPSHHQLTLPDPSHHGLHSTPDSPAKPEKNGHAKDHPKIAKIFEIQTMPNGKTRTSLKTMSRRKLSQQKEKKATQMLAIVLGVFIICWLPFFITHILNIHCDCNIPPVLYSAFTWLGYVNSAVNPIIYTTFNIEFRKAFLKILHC
For another experiment, the target named is D(1A) dopamine receptor (Homo sapiens, UniProt P21728). Briefly: In vitro binding affinity of compound against dopamine neuronal Dopamine receptor D1.
Chain of D(1A) dopamine receptor (P21728 whole entry): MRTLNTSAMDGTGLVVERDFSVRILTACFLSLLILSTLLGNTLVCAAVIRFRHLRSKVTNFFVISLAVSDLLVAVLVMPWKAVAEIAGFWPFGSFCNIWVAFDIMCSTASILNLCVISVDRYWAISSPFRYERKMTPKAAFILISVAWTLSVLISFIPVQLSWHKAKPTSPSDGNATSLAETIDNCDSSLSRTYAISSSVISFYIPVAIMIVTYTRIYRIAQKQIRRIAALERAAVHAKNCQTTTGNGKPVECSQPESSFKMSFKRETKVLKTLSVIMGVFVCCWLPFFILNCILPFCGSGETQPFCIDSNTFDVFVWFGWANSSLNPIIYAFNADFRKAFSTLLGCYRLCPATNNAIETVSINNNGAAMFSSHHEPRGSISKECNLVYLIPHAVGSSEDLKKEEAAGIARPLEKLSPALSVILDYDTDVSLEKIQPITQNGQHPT
For experiment [3], the target named is GABA-A receptor; anion channel. Briefly: In vitro binding affinity for neuronal GABA-A receptor. Format: protein-complex assay.
In the next experiment the target is Histamine H1 receptor (Homo sapiens, UniProt P35367). Briefly: In vitro binding affinity of compound against histamine H1 neuronal receptor.
Chain of Histamine H1 receptor (P35367 whole entry): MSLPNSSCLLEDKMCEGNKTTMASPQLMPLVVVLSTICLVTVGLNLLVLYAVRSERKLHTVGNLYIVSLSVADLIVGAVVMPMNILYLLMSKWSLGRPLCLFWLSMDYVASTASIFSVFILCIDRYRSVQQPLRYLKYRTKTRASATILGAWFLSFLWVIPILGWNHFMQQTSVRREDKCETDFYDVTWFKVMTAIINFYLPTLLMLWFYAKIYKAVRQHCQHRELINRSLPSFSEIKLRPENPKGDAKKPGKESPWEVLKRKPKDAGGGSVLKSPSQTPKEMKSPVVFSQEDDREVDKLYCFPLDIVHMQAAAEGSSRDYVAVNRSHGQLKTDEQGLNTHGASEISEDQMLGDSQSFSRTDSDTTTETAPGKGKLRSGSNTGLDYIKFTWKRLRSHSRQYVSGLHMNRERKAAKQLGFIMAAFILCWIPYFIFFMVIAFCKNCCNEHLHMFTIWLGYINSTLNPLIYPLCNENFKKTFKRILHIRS
The subject of experiment [4] is Mus musculus. Briefly: In vivo minimum effective dose of compound to block the apomorphine-induced climbing behavior in mice after intravenous administration. Format: functional.
Experiment [5] concerns Mus musculus. Briefly: In vivo minimum effective dose of compound to block the apomorphine-induced climbing behavior in mice after subcutaneous administration. Format: functional.
In experiment [6] the target is Muscarinic acetylcholine receptor. In words: In vitro binding affinity of compound against muscarinic neuronal receptor. Format: protein assay.
Experiment [7] relates to Rattus norvegicus. Briefly: In vivo minimum effective dose of compound to block the conditioned avoidance behavior in rats after intravenous administration. In kind it is functional.
In experiment [8] the test system is Rattus norvegicus. In words: In vivo minimum effective dose of compound to block the conditioned avoidance behavior in rats after peroral administration. In kind it is functional.
In experiment [9] the target is T2, Adrenergic receptor alpha-2 (Homo sapiens, UniProt P08913+P18825+P18089).
T2 sequence (P08913 whole entry): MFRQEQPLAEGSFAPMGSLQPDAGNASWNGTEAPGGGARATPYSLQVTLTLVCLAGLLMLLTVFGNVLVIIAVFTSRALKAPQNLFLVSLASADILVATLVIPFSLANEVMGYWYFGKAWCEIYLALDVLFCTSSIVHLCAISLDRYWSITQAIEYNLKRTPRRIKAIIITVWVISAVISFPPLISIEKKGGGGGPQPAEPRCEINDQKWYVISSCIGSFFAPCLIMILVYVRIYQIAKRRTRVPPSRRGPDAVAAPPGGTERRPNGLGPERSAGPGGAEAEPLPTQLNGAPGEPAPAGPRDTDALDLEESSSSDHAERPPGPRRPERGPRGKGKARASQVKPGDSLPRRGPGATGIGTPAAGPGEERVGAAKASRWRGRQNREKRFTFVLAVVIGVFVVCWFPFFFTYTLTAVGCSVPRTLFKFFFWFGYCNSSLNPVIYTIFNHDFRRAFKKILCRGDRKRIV
T2 sequence (P18825 whole entry): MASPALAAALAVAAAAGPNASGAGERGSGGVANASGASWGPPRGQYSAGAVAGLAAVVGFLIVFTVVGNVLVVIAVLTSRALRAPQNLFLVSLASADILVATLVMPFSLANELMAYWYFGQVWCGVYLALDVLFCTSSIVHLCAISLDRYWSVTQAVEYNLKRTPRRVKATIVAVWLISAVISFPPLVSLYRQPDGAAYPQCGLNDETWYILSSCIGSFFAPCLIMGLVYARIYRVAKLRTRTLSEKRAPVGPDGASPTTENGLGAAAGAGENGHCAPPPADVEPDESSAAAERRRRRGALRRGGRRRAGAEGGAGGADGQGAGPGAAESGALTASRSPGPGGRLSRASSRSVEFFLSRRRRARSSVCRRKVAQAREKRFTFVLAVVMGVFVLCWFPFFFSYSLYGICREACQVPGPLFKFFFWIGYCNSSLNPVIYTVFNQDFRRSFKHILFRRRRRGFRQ
T2 sequence (P18089 whole entry): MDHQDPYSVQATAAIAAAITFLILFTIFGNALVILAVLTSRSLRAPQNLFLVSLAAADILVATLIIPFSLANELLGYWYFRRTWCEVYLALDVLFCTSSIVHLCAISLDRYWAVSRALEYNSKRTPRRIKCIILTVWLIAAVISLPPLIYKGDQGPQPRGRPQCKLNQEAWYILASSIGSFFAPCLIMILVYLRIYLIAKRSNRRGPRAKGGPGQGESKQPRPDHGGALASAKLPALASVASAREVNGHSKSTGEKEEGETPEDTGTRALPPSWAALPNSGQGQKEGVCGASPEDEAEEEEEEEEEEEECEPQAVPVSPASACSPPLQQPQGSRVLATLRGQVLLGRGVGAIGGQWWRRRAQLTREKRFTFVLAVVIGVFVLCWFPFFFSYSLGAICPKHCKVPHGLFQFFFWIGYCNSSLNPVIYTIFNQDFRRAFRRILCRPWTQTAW
Briefly: In vitro binding affinity of compound against neuronal alpha-2 adrenergic receptor. Format: protein assay.

For experiment [10], the target named is GABA-A receptor; anion channel. In words: In vitro binding affinity for neuronal GABA-A benzodiazepine receptor. Format: protein-complex assay.
The test system of experiment [11] is Mus musculus. Briefly: In vivo minimum effective dose of compound to block the apomorphine-induced climbing behavior in mice after peroral administration. In kind it is functional.

As to `Cc1cc2c(s1)Nc1ccccc1N=C2N1CC[N+](C)([O-])CC1`, the inhibitory constant (Ki) (usually a measure of affinity in units of concentration, obtained from inhibition or displacement) was 0.112 µM in [1]; 0.266 µM in experiment [2]; > 10 µM on Adrenergic receptor beta; 0.119 µM at D(2) dopamine receptor; 0.395 µM at D(1A) dopamine receptor; > 10 µM in [3]. Moreover, the Ki on Histamine H1 receptor is 0.087 µM; in experiment [6], 0.662 µM; in experiment [9], > 10 µM; in [10], > 10 µM. Further, the EDmin was >10 mg/kg with Mus musculus [4], 12.5 mg/kg with Mus musculus [5], >4 mg/kg in the experiment on Rattus norvegicus [7] and >25 mg/kg in the experiment with Rattus norvegicus [8].

As to `CN1CCN(C2=Nc3ccccc3Nc3sc(CO)cc32)CC1`, the Ki in experiment [1] is 0.018 µM; in [2] it was 0.012 µM; on Adrenergic receptor beta, > 10 µM; on D(2) dopamine receptor, 0.022 µM; on D(1A) dopamine receptor, 0.066 µM; in [3], > 10 µM. In addition, the Ki was 0.006 µM at Histamine H1 receptor, 0.501 µM in experiment [6], 0.783 µM in experiment [9] and > 1 µM in experiment [10]. The EDmin in the experiment with Mus musculus [11] worked out at 20 mg/kg.

Take `Cc1cc2c(s1)Nc1ccccc1N=C2N1CCN(C)CC1` [OLANZAPINE]: the Ki in experiment [3] and in [10] was > 10 µM each time. Moreover, the EDmin in the experiment with Mus musculus [4] turned out to be 1 mg/kg; in the experiment with Mus musculus [11], 2.5 mg/kg; with Mus musculus [5], 0.625 mg/kg; in the experiment on Rattus norvegicus [7], 0.25 mg/kg; in the experiment on Rattus norvegicus [8], 2.5 mg/kg.

For the compound `Cc1cc2c(s1)Nc1ccccc1N=C2N1CCNCC1` [DESMETHYLOLANZAPINE], the Ki in [1] was 0.023 µM; in experiment [2], 0.08 µM; on Adrenergic receptor beta, > 10 µM; on D(2) dopamine receptor, 0.009 µM; on D(1A) dopamine receptor it was 0.203 µM; in experiment [3] it was > 10 µM. Further, the Ki is 0.022 µM on Histamine H1 receptor, 0.333 µM in experiment [6], 1 µM in experiment [9] and > 10 µM in experiment [10]. The EDmin was >10 mg/kg with Mus musculus [4], 50 mg/kg in the experiment with Mus musculus [5], >4 mg/kg in the experiment with Rattus norvegicus [7] and >25 mg/kg in the experiment on Rattus norvegicus [8].
